From patent US11034692B1 (Genentech, Inc., priority 2017, dated 2021) come the findings set out here.

By Ki is commonly meant a dissociation constant, usually derived from enzyme kinetics or from competition with a known ligand.

Structures are written as SMILES. Some results are limits rather than exact numbers.

HPK1 (Homo sapiens, UniProt Q92918), sequence (Q92918 whole entry, looked up): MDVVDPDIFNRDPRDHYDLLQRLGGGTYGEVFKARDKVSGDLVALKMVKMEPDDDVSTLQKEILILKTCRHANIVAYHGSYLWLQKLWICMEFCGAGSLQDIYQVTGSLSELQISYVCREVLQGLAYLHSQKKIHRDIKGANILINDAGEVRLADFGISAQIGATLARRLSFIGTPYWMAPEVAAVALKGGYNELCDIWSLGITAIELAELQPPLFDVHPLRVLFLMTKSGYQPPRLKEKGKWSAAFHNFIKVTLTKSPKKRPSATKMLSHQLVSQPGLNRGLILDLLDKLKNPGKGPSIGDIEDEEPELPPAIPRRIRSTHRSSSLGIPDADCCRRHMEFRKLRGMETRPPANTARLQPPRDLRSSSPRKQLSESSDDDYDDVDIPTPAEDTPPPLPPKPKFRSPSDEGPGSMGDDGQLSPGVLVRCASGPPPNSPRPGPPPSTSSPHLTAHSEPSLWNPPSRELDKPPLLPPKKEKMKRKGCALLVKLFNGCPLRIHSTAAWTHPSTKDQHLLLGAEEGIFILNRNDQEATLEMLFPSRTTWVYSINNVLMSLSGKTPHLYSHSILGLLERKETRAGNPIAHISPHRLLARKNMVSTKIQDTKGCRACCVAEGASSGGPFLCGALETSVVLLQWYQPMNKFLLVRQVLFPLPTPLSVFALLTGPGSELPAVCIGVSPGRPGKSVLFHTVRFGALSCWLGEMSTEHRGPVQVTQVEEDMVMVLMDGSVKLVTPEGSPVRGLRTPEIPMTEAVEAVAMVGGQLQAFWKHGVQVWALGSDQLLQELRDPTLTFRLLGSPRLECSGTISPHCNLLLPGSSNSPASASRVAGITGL

The first test has as its target HPK1 (Homo sapiens, UniProt Q92918). As to the kind of experiment: HPK1 Lantha Binding Assay ("Lanth"). The following applies: Table B1-1, read-out: HPK1 Ki (μM) (Lanth). In short, it runs like this:
(§1)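 Compounds in an 11-point 5-fold series were preincubated 1 h at 23 C with 2 nM kinase plus 2 nM Eu-anti-GST antibody. Then 15 nM Tracer222 was added for another hour, and time-resolved FRET was read at 665/615 nm. Ki values come from a Morrison tight-binding model that uses the tracer Kd.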
As to `Cc1c(-c2cc3cc(NC(=O)[C@@H]4C[C@@H]4F)ncc3c(N)n2)cnn1C` (racemic) [Compound 2, (±)-cis-N-(8-amino-6-(1,5-dimethyl-1H-pyrazol-4-yl)-2,7-naphthyridin-3-yl)-2-fluorocyclopropanecarboxamide], the Ki was determined as 0.00156 µM.

Take `Cc1nn(C)c(C)c1-c1cc2cc(NC(=O)[C@@H]3C[C@@H]3F)ncc2c(N)n1` (racemic) [Compound 3, (±)-cis-N-(8-amino-6-(1,3,5-trimethyl-1H-pyrazol-4-yl)-2,7-naphthyridin-3-yl)-2-fluorocyclopropanecarboxamide]: the inhibition constant (Ki) was 0.00514 µM.

`Cn1cc(-c2cc3cc(NC(=O)[C@H]4C[C@@H]4F)ncc3c(N)n2)cn1` (racemic) [Compound 8, trans-N-(8-amino-6-(1-methyl-1H-pyrazol-4-yl)-2,7-naphthyridin-3-yl)-2-fluorocyclopropanecarboxamide]: the Ki was determined as 0.00164 µM.

Turning to `Cc1cc(N)ncc1-c1cc2cc(NC(=O)[C@@H]3C[C@@H]3F)ncc2c(N)n1` (racemic) [Compound 16, (±)-cis-N-(8-amino-6-(6-amino-4-methylpyridin-3-yl)-2,7-naphthyridin-3-yl)-2-fluorocyclopropanecarboxamide], the Ki is 0.00721 µM.

Consider `N#C[C@@H]1C[C@@H]1C(=O)Nc1cc2cc(-c3cncc4[nH]ccc34)nc(N)c2cn1` (racemic) [Compound 21, (±)-cis-N-(8-amino-6-(1H-pyrrolo[2,3-c]pyridin-4-yl)-2,7-naphthyridin-3-yl)-2-cyanocyclopropanecarboxamide], for which the Ki is 0.00276 µM.

As to `CCc1ccncc1-c1cc2cc(NC(=O)NC(C)C(N)=O)ncc2c(N)n1` (racemic) [Compound 34, 2-[[8-amino-6-(4-ethyl-3-pyridyl)-2,7-naphthyridin-3-yl]carbamoylamino]propanamide], the inhibition constant (Ki) was 0.034 µM.

In the next test the target is HPK1. Kind of test: HPK1 Lantha Binding Assay ("Lanth"). The following applies: Table B1-1, read-out: HPK1 Ki (μM) (Lanth). A digest of the protocol:
as §1
Consider `Cc1ccncc1-c1cc2cc(NC(=O)[C@@H]3[C@@H](C)[C@H]3c3cnn(C)c3)ncc2c(N)n1` [Compound 326, (1R,2S,3R)—N-[8-amino-6-(4-methylpyridin-3-yl)-2,7-naphthyridin-3-yl]-2-methyl-3-(1-methyl-1H-pyrazol-4-yl)cyclopropane-1-carboxamide], for which the inhibition constant Ki amounted to 0.074 nM.

For `Cc1ccncc1-c1cc2cc(NC(=O)[C@H]3[C@H](C)[C@@H]3c3cnn(C)c3)ncc2c(N)n1` [Compound 327, (1S,2R,3S)—N-[8-amino-6-(4-methylpyridin-3-yl)-2,7-naphthyridin-3-yl]-2-methyl-3-(1-methyl-1H-pyrazol-4-yl)cyclopropane-1-carboxamide], the Ki turned out to be 1.43 nM.

With `Cc1ccncc1-c1cc2cc(NC(=O)[C@@H]3[C@H](C)[C@H]3c3cnn(C)c3)ncc2c(N)n1` [Compound 329, (1R,2R,3R)—N-[8-amino-6-(4-methylpyridin-3-yl)-2,7-naphthyridin-3-yl]-2-methyl-3-(1-methyl-1H-pyrazol-4-yl)cyclopropane-1-carboxamide], the Ki was determined as 2.65 nM.

With `COCCn1cc([C@@H]2C[C@H]2C(=O)Nc2cc3cc(-c4cnccc4C)nc(N)c3cn2)cn1` [Compound 330, (1R,2R)—N-(8-amino-6-(4-methylpyridin-3-yl)-2,7-naphthyridin-3-yl)-2-(1-(2-methoxyethyl)-1H-pyrazol-4-yl)cyclopropanecarboxamide], the Ki is below 0.02 nM.

For `COCCn1cc([C@H]2C[C@@H]2C(=O)Nc2cc3cc(-c4cnccc4C)nc(N)c3cn2)cn1` [Compound 331, (1S,2S)—N-(8-amino-6-(4-methylpyridin-3-yl)-2,7-naphthyridin-3-yl)-2-(1-(2-methoxyethyl)-1H-pyrazol-4-yl)cyclopropanecarboxamide], the Ki is 1.12 nM.

Regarding `Cn1cc([C@@H]2C[C@H]2C(=O)Nc2cc3c(Cl)c(-c4cnccc4CCO)nc(N)c3cn2)cn1` [Compound 333, (1R,2R)—N-(8-amino-5-chloro-6-(4-(2-hydroxyethyl)pyridin-3-yl)-2,7-naphthyridin-3-yl)-2-(1-methyl-1H-pyrazol-4-yl)cyclopropanecarboxamide], the Ki was found to be 0.432 nM.

As for `Cc1cc(-c2ccccc2)ncc1-c1cc2cc(NC(=O)[C@@H]3C[C@H]3CC#N)ncc2c(N)n1` [Compound 334, (1R,2S)—N-[8-amino-6-(4-methyl-6-phenylpyridin-3-yl)-2,7-naphthyridin-3-yl]-2-(cyanomethyl)cyclopropane-1-carboxamide], the inhibition constant (Ki) came to 20.4 nM.

With `Cc1cc(-c2ccccc2)ncc1-c1cc2cc(NC(=O)[C@H]3C[C@@H]3CC#N)ncc2c(N)n1` [Compound 335, (1S,2R)—N-[8-amino-6-(4-methyl-6-phenylpyridin-3-yl)-2,7-naphthyridin-3-yl]-2-(cyanomethyl)cyclopropane-1-carboxamide], the inhibitory constant (Ki) turned out to be 4.41 nM.

Turning to `Cc1ccncc1-c1cc2cc(NCC(F)F)ncc2c(N)n1` [Compound 338, N6-(2,2-difluoroethyl)-3-(4-methylpyridin-3-yl)-2,7-naphthyridine-1,6-diamine], the inhibition constant (Ki) came out at 345 nM.

The test is the same for the next values; noted with them: Table B1-2, read-out: HPK1 Ki, L = Lanth.
In the case of `Cc1cccc(F)c1-c1cc2cc(NC(=O)[C@@H]3[C@@H](C)[C@H]3c3cnn(C)c3)ncc2c(N)n1` [Compound 354, (1R,2S,3R)—N-[8-amino-6-(2-fluoro-6-methylphenyl)-2,7-naphthyridin-3-yl]-2-methyl-3-(1-methyl-1H-pyrazol-4-yl)cyclopropane-1-carboxamide], the Ki stood at 0.083 nM.

With `Cc1cccc(F)c1-c1cc2cc(NC(=O)[C@H]3[C@@H](C)[C@@H]3c3cnn(C)c3)ncc2c(N)n1` [Compound 355, (1S,2S,3S)—N-[8-amino-6-(2-fluoro-6-methylphenyl)-2,7-naphthyridin-3-yl]-2-methyl-3-(1-methyl-1H-pyrazol-4-yl)cyclopropane-1-carboxamide], the Ki stood at 1.8 nM.

As for `Cc1cccc(F)c1-c1cc2cc(NC(=O)[C@H]3[C@H](C)[C@@H]3c3cnn(C)c3)ncc2c(N)n1` [Compound 357, (1S,2R,3S)—N-[8-amino-6-(2-fluoro-6-methylphenyl)-2,7-naphthyridin-3-yl]-2-methyl-3-(1-methyl-1H-pyrazol-4-yl)cyclopropane-1-carboxamide], the Ki is 2.7 nM.

For the compound `Cc1ccncc1-c1cc2cc(NC(=O)[C@H]3[C@@H]4CC(NS(C)(=O)=O)C[C@@H]43)ncc2c(N)n1` (stereo partly shown) [Compound 412, N-(8-amino-6-(4-methylpyridin-3-yl)-2,7-naphthyridin-3-yl)-3-(methylsulfonamido)bicyclo[3.1.0]hexane-6-carboxamide], the inhibition constant (Ki) worked out at 96 nM.

Take `CC1=CN(C)C(=O)Cc2nc(Nc3cc4cc(-c5cnccc5C)nc(N)c4cn3)ccc21` [Compound 418, 2-((8-amino-6-(4-methylpyridin-3-yl)-2,7-naphthyridin-3-yl)amino)-5,7-dimethyl-7,9-dihydro-8H-pyrido[2,3-d]azepin-8-one]: the Ki stood at 1.4 nM.

With `Cc1cccc(F)c1-c1cc2cc(Nc3cc4n(n3)CC(=O)N(C)CC4)ncc2c(N)n1` [Compound 426, 2-((8-amino-6-(2-fluoro-6-methylphenyl)-2,7-naphthyridin-3-yl)amino)-6-methyl-5,6-dihydro-4H-pyrazolo[1,5-d][1,4]diazepin-7(8H)-one], the Ki amounted to 0.02 nM.

On to `COCc1cccc(C)c1-c1cc2cc(NC(=O)[C@@H]3C[C@H]3c3cnn(C)c3)ncc2c(N)n1` [Compound 428, (1R,2R)-N-(8-amino-6-(2-(methoxymethyl)-6-methylphenyl)-2,7-naphthyridin-3-yl)-2-(1-methyl-1H-pyrazol-4-yl)cyclopropane-1-carboxamide], for which the Ki was 8 nM.
